PubChem BioAssay (NCI)
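Five compound concentrations were applied to cells in 96-well plates for 48 hours; endpoints were derived by simple linear interpolation of the resulting dose-response curve. Abbreviation: GI50, concentration required for 50% inhibition of growth. TGI: concentration producing complete growth inhibition.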

Tests used:
Experiment in all cases: NCI-60 cell line screen, 48 h
[1] = test system: 786-0 renal
[2] = test system: A498 renal
[3] = test system: A549 NSCLC
[4] = test system: ACHN renal
[5] = test system: BT-549 breast
[6] = test system: CAKI-1 renal
[7] = test system: CCRF-CEM leukemia
[8] = test system: COLO 205 colon
[9] = test system: DU-145 prostate
[10] = test system: EKVX NSCLC
[11] = test system: HCC-2998 colon
[12] = test system: HCT-116 colon
[13] = test system: HCT-15 colon
[14] = test system: HL-60(TB) leukemia
[15] = test system: HOP-62 NSCLC
[16] = test system: HOP-92 NSCLC
[17] = test system: HS 578T breast
[18] = test system: HT29 colon
[19] = test system: IGROV1 ovarian
[20] = test system: K-562 leukemia
[21] = test system: KM12 colon
[22] = test system: LOX IMVI melanoma
[23] = test system: M14 melanoma
[24] = test system: MALME-3M melanoma
[25] = test system: MCF7 breast
[26] = test system: MDA-MB-231 breast
[27] = test system: MDA-MB-435
[28] = test system: MDA-MB-468 breast
[29] = test system: MOLT-4 leukemia
[30] = test system: NCI-H226 lung
[31] = test system: NCI-H23 lung
[32] = test system: NCI-H460 lung
[33] = test system: NCI-H522 lung
[34] = test system: NCI/ADR-RES ovarian
[35] = test system: OVCAR-3 ovarian
[36] = test system: OVCAR-4 ovarian
[37] = test system: OVCAR-5 ovarian
[38] = test system: OVCAR-8 ovarian
[39] = test system: PC-3 prostate
[40] = test system: RPMI-8226 leukemia
[41] = test system: RXF 393 renal
[42] = test system: SF-268 CNS
[43] = test system: SF-295 CNS
[44] = test system: SF-539 CNS
[45] = test system: SK-MEL-2 melanoma
[46] = test system: SK-MEL-28 melanoma
[47] = test system: SK-MEL-5 melanoma
[48] = test system: SK-OV-3 ovarian
[49] = test system: SN12C renal
[50] = test system: SNB-19 CNS
[51] = test system: SNB-75 CNS
[52] = test system: SR leukemia
[53] = test system: SW-620 colon
[54] = test system: T-47D breast
[55] = test system: TK-10 renal
[56] = test system: U251 CNS
[57] = test system: UACC-257 melanoma
[58] = test system: UACC-62 melanoma
[59] = test system: UO-31 renal

Question: `CCCCNC(=S)Nc1ccc(OCc2nc3ccc(Cl)cc3[nH]2)cc1` was tested. Which GI50 [1] did it give?
Answer: 2.67 µM

Question: What about the TGI [1] of the same compound?
Answer: 10.1 µM

Question: What about the GI50 [2] of the same compound?
Answer: 12.1 µM

Question: What about the TGI [2] of the same compound?
Answer: 24.9 µM

Question: And the GI50 [3]?
Answer: 12.2 µM

Question: What about the TGI [3] of the same compound?
Answer: 26.7 µM

Question: What about the GI50 [4] of the same compound?
Answer: 7.74 µM

Question: And the TGI [4]?
Answer: 20.4 µM

Question: And the GI50 [5]?
Answer: 9.98 µM

Question: What about the TGI [5] of the same compound?
Answer: 22.4 µM

Question: And the GI50 [6]?
Answer: 4.42 µM

Question: What about the TGI [6] of the same compound?
Answer: 18.3 µM

Question: And the GI50 [7]?
Answer: 3.16 µM

Question: And the TGI [7]?
Answer: 12.4 µM

Question: And the GI50 [8]?
Answer: 17 µM

Question: And the TGI [8]?
Answer: 38.1 µM

Question: What about the GI50 [9] of the same compound?
Answer: 12.9 µM

Question: And the TGI [9]?
Answer: 26 µM

Question: And the GI50 [10]?
Answer: 7.13 µM

Question: What about the TGI [10] of the same compound?
Answer: 20.2 µM

Question: And the GI50 [11]?
Answer: 4.14 µM

Question: What about the TGI [11] of the same compound?
Answer: 17.1 µM

Question: And the GI50 [12]?
Answer: 4.54 µM

Question: And the TGI [12]?
Answer: 19.7 µM

Question: What about the GI50 [13] of the same compound?
Answer: 4.59 µM

Question: And the TGI [13]?
Answer: 17.9 µM

Question: And the GI50 [14]?
Answer: 1.8 µM

Question: And the TGI [14]?
Answer: 9.66 µM

Question: What about the GI50 [15] of the same compound?
Answer: 13.9 µM

Question: And the TGI [15]?
Answer: 27.3 µM

Question: And the GI50 [16]?
Answer: 2.04 µM

Question: And the TGI [16]?
Answer: 6.43 µM

Question: And the GI50 [17]?
Answer: 10.7 µM

Question: And the TGI [17]?
Answer: 38.6 µM

Question: And the GI50 [18]?
Answer: 10.7 µM

Question: And the TGI [18]?
Answer: 24.6 µM

Question: And the GI50 [19]?
Answer: 5.3 µM

Question: What about the TGI [19] of the same compound?
Answer: 18.5 µM

Question: And the GI50 [20]?
Answer: 3.41 µM

Question: What about the TGI [20] of the same compound?
Answer: > 100 µM

Question: And the GI50 [21]?
Answer: 14 µM

Question: And the TGI [21]?
Answer: 28.9 µM

Question: And the GI50 [22]?
Answer: 3.41 µM

Question: And the TGI [22]?
Answer: 16.2 µM

Question: And the GI50 [23]?
Answer: 11.3 µM

Question: And the TGI [23]?
Answer: 26.8 µM

Question: What about the GI50 [24] of the same compound?
Answer: 11.6 µM

Question: And the TGI [24]?
Answer: 23.9 µM

Question: What about the GI50 [25] of the same compound?
Answer: 3.55 µM

Question: What about the TGI [25] of the same compound?
Answer: 18.8 µM

Question: And the GI50 [26]?
Answer: 9.9 µM

Question: What about the TGI [26] of the same compound?
Answer: 22.1 µM

Question: What about the GI50 [27] of the same compound?
Answer: 10.1 µM

Question: What about the TGI [27] of the same compound?
Answer: 22.2 µM

Question: What about the GI50 [28] of the same compound?
Answer: 2.45 µM

Question: And the TGI [28]?
Answer: 12.4 µM

Question: And the GI50 [29]?
Answer: 3.23 µM

Question: And the TGI [29]?
Answer: 13.3 µM

Question: And the GI50 [30]?
Answer: 9.57 µM

Question: What about the TGI [30] of the same compound?
Answer: 26.4 µM

Question: What about the GI50 [31] of the same compound?
Answer: 10.5 µM

Question: And the TGI [31]?
Answer: 23.5 µM

Question: What about the GI50 [32] of the same compound?
Answer: 10.2 µM

Question: And the TGI [32]?
Answer: 27.8 µM

Question: What about the GI50 [33] of the same compound?
Answer: 3.07 µM

Question: What about the TGI [33] of the same compound?
Answer: 14.8 µM

Question: What about the GI50 [34] of the same compound?
Answer: 5.73 µM

Question: What about the TGI [34] of the same compound?
Answer: 23.4 µM

Question: What about the GI50 [35] of the same compound?
Answer: 4.65 µM

Question: What about the TGI [35] of the same compound?
Answer: 19 µM

Question: What about the GI50 [36] of the same compound?
Answer: 7.67 µM

Question: And the TGI [36]?
Answer: 21.5 µM

Question: And the GI50 [37]?
Answer: 13 µM

Question: What about the TGI [37] of the same compound?
Answer: 25.6 µM

Question: What about the GI50 [38] of the same compound?
Answer: 12.4 µM

Question: And the TGI [38]?
Answer: 25.9 µM

Question: What about the GI50 [39] of the same compound?
Answer: 3.08 µM

Question: What about the TGI [39] of the same compound?
Answer: 14.5 µM

Question: And the GI50 [40]?
Answer: 3.83 µM

Question: And the TGI [40]?
Answer: 30.3 µM

Question: What about the GI50 [41] of the same compound?
Answer: 3.82 µM

Question: What about the TGI [41] of the same compound?
Answer: 16.2 µM

Question: And the GI50 [42]?
Answer: 12.1 µM

Question: And the TGI [42]?
Answer: 27.9 µM

Question: And the GI50 [43]?
Answer: 6.92 µM

Question: What about the TGI [43] of the same compound?
Answer: 20.6 µM

Question: And the GI50 [44]?
Answer: 11.5 µM

Question: What about the TGI [44] of the same compound?
Answer: 23.6 µM

Question: What about the GI50 [45] of the same compound?
Answer: 13.1 µM

Question: And the TGI [45]?
Answer: 26.3 µM

Question: And the GI50 [46]?
Answer: 14.3 µM

Question: And the TGI [46]?
Answer: 27.5 µM

Question: And the GI50 [47]?
Answer: 11.9 µM

Question: What about the TGI [47] of the same compound?
Answer: 24.5 µM

Question: And the GI50 [48]?
Answer: 14.8 µM

Question: What about the TGI [48] of the same compound?
Answer: 28.6 µM

Question: What about the GI50 [49] of the same compound?
Answer: 10.5 µM

Question: And the TGI [49]?
Answer: 22.9 µM

Question: What about the GI50 [50] of the same compound?
Answer: 12.8 µM

Question: What about the TGI [50] of the same compound?
Answer: 25.4 µM

Question: What about the GI50 [51] of the same compound?
Answer: 3.48 µM

Question: And the TGI [51]?
Answer: 18.1 µM

Question: What about the GI50 [52] of the same compound?
Answer: 2.91 µM

Question: What about the TGI [52] of the same compound?
Answer: 17.4 µM

Question: And the GI50 [53]?
Answer: 11.9 µM

Question: What about the TGI [53] of the same compound?
Answer: 30.7 µM

Question: What about the GI50 [54] of the same compound?
Answer: 6.06 µM

Question: And the TGI [54]?
Answer: 20.5 µM

Question: What about the GI50 [55] of the same compound?
Answer: 13.1 µM

Question: And the TGI [55]?
Answer: 26.2 µM

Question: What about the GI50 [56] of the same compound?
Answer: 13.1 µM

Question: What about the TGI [56] of the same compound?
Answer: 26.4 µM

Question: And the GI50 [57]?
Answer: 11.5 µM

Question: And the TGI [57]?
Answer: 24.1 µM

Question: What about the GI50 [58] of the same compound?
Answer: 9.83 µM

Question: What about the TGI [58] of the same compound?
Answer: 21.7 µM

Question: What about the GI50 [59] of the same compound?
Answer: 3.46 µM

Question: And the TGI [59]?
Answer: 16.2 µM
